Measurements as given in US11542259B2, “Compounds for the treatment of kinase-dependent disorders” (Exelixis, Inc., priority 2018, dated 2023).

Experiments:
Type in all cases: cell-based
KDR = KDR (Homo sapiens (Human), UniProt P35968); assay: KDR autophosphorylation ELISA in HUVEC cells; conditions: cellular, VEGF165 stimulated
Procedure, shortened: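 Read-out: phospho-KDR ELISA on cell lysates, quantified against a phospho-KDR standard, normalised to VEGF-stimulated DMSO (100%) and unstimulated (0%) wells, IC50 by 4-parameter fit. Cells were 24 h serum-starved HUVEC given compound for 1 h, then 100 ng/mL VEGF165 for 5 min.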

Met = Met (Homo sapiens (Human), UniProt P08581); assay: Met autophosphorylation ELISA in PC-3 cells; conditions: cellular, HGF stimulated, read-out: c-Met IC50
Procedure, shortened: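 Phospho-Met (panTyr) sandwich ELISA on lysates of PC-3 cells given 100 ng/mL HGF for 10 min after 1 h compound exposure (8-point curve, 0.3% DMSO) following 3 h serum starvation. Normalised to HGF-stimulated DMSO and reference-inhibitor wells; 4-parameter logistic IC50.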

AXL = AXL (Homo sapiens (Human), UniProt P30530); assay: AXL autophosphorylation ELISA in A-172 cells; conditions: cellular, Gas6 stimulated
Procedure, shortened: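 Serum-starved (24 h) A-172 glioblastoma cells pretreated 1 h with compounds (8-point curve, 0.3% DMSO), then stimulated 15 min with 1 μg/mL Gas6. Lysate phospho-AXL measured by sandwich ELISA against a phospho-AXL standard; IC50 from 4-parameter logistic fit between DMSO and reference-inhibitor controls.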

Mer = Mer (Homo sapiens (Human), UniProt Q12866); assay: Mer autophosphorylation ELISA in transient transfected 293A cells; conditions: cellular, MERTK transfected 293A cells
Protocol: 293A cells (Thermo Fisher #R70507) were seeded at 1.5×10^6 cells/well onto 100 mm dish (Greiner #664169), in DMEM (Thermo Fisher #11995-040) containing 10% FBS (Thermo Fisher #26140-079), 1% MEM NEAA (Thermo Fisher #11140-050), 1% GlutaMax (Thermo Fisher #35050-061), and 1% Penicillin Streptomycin (Thermo Fisher #15140-122). 293A cells were incubated at 37° C., 5% CO2 for 24 h and then transfected with 6 μg MERTK DNA (Genecopoeia #EX-Z8208-M02) using TransIT LT1 transfection reagent (Mirus-Bio #MIR2305). After 24 h incubation, the transfected 293A cells were seeded at 1×10^5 cells/well onto 96-well plates (Corning #3904) in DMEM growth medium overnight. Test compounds were serially diluted to produce an 8-point dose curve in fresh serum-free medium to a final concentration of 0.3% DMSO (vehicle) and added to the cells and incubated for 1 h. Cells were then immediately lysed with 150 μL of cold 1× lysis buffer [20 mM Tris, 137 mM sodium chloride, 2 mM EDTA, 10% glycerol, 1% NP-40 alternative, 1 mM activated sodium orthovanadate, 1 mM PefaBloc SC (Sigma-Aldrich #11429868001), protease/phosphatase inhibitor tablet (Thermo Fisher #A32959)]. Lysates were clarified by centrifugation and 50 μL/well added into the human phospho-Mer DuoSet IC ELISA (R&D Systems #DYC2579-2). Assay was performed according to manufacturer's instructions and sample phospho-Mer concentrations were extrapolated using human phospho-Mer control (R&D Systems #841793) as a standard. Positive control wells (100% activity) contained DMSO-treated cell lysates. Negative control wells (0% activity) contained reference inhibitor-treated cell lysates. IC50 values were calculated by nonlinear regression analysis using a 4-parameter logistic curve fit in ActivityBase XE (IDBS).

AXL, sequence (P30530 26-894): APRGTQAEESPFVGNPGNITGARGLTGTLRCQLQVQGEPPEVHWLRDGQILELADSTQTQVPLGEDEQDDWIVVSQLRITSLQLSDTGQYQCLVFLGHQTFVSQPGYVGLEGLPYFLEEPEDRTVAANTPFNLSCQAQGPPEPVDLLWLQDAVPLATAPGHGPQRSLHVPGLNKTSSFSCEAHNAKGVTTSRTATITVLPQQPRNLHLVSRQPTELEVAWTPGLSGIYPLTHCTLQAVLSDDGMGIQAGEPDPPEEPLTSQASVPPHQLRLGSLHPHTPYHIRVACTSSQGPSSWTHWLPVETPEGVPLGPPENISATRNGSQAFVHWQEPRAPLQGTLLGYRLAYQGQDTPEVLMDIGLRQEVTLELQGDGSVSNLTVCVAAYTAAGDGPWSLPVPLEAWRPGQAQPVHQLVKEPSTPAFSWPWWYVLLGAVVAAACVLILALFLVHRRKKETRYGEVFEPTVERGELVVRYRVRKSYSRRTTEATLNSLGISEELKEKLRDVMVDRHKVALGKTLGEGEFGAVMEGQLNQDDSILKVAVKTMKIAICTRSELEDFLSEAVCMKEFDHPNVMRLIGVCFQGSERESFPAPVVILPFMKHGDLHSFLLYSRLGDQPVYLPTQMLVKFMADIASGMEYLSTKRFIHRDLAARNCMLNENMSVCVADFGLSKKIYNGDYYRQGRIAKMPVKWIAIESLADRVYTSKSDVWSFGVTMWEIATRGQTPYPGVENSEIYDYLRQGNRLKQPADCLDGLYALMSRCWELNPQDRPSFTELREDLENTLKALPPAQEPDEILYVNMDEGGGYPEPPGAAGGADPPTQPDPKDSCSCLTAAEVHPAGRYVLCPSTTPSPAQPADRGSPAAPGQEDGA
Mer, sequence (Q12866 21-999): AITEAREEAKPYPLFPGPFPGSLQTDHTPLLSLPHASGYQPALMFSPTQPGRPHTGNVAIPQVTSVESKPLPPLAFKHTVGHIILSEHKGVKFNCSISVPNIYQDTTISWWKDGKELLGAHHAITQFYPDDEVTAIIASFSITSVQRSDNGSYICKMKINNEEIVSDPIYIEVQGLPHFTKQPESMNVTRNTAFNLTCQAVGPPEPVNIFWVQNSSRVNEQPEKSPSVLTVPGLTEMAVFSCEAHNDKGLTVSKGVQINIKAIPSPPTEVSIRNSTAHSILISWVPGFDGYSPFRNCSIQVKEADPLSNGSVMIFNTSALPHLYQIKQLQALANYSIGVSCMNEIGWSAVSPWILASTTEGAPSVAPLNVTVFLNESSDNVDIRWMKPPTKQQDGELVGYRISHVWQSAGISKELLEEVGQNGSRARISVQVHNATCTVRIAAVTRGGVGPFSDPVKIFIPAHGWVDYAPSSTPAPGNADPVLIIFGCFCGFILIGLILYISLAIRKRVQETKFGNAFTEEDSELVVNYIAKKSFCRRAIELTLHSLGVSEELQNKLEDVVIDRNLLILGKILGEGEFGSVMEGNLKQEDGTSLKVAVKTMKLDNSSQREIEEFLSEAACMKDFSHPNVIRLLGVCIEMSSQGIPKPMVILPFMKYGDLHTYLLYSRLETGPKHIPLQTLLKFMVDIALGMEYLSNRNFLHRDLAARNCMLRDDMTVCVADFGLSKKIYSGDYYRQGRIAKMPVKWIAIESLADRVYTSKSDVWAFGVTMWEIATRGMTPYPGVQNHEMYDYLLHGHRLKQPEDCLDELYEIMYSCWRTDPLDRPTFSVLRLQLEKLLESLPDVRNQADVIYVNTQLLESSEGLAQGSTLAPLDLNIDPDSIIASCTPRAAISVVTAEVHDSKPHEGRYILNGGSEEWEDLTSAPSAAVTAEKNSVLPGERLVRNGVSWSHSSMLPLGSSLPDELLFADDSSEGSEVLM
Met, sequence (P08581 25-1390): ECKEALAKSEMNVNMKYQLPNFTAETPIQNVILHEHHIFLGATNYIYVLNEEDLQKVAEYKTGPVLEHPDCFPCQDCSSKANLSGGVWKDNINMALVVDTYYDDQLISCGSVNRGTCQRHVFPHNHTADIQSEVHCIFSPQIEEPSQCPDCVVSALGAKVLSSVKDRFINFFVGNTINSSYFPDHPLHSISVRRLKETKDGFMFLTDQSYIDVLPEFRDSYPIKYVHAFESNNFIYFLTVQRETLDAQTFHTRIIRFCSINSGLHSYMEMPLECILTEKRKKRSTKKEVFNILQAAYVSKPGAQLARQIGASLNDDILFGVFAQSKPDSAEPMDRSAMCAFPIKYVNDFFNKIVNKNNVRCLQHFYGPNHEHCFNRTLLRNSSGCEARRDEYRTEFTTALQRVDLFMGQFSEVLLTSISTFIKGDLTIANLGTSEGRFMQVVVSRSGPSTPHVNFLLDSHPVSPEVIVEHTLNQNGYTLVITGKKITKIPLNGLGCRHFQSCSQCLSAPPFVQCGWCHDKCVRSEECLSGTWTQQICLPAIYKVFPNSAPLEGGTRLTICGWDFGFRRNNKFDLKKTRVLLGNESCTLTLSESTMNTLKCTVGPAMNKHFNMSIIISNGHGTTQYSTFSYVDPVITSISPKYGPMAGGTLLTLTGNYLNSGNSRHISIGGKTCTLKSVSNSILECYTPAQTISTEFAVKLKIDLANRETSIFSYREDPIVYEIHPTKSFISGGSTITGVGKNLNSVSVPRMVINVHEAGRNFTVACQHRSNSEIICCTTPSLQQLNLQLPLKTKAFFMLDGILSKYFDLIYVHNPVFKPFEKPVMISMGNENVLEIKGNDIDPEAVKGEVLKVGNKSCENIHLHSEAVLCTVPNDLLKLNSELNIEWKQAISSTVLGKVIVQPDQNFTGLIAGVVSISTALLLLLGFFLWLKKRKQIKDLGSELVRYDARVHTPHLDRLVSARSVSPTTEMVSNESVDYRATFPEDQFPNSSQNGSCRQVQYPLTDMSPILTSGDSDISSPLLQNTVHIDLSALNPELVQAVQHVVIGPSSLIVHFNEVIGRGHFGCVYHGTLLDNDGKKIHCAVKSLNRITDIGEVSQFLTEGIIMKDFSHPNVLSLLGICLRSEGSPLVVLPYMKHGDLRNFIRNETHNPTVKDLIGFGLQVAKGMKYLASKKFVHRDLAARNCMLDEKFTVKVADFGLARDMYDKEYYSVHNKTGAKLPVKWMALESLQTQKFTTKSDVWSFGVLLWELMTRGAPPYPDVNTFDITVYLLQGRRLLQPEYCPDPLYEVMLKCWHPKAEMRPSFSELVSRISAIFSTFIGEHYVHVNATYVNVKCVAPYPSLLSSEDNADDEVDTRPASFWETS
KDR, sequence (P35968 20-1356): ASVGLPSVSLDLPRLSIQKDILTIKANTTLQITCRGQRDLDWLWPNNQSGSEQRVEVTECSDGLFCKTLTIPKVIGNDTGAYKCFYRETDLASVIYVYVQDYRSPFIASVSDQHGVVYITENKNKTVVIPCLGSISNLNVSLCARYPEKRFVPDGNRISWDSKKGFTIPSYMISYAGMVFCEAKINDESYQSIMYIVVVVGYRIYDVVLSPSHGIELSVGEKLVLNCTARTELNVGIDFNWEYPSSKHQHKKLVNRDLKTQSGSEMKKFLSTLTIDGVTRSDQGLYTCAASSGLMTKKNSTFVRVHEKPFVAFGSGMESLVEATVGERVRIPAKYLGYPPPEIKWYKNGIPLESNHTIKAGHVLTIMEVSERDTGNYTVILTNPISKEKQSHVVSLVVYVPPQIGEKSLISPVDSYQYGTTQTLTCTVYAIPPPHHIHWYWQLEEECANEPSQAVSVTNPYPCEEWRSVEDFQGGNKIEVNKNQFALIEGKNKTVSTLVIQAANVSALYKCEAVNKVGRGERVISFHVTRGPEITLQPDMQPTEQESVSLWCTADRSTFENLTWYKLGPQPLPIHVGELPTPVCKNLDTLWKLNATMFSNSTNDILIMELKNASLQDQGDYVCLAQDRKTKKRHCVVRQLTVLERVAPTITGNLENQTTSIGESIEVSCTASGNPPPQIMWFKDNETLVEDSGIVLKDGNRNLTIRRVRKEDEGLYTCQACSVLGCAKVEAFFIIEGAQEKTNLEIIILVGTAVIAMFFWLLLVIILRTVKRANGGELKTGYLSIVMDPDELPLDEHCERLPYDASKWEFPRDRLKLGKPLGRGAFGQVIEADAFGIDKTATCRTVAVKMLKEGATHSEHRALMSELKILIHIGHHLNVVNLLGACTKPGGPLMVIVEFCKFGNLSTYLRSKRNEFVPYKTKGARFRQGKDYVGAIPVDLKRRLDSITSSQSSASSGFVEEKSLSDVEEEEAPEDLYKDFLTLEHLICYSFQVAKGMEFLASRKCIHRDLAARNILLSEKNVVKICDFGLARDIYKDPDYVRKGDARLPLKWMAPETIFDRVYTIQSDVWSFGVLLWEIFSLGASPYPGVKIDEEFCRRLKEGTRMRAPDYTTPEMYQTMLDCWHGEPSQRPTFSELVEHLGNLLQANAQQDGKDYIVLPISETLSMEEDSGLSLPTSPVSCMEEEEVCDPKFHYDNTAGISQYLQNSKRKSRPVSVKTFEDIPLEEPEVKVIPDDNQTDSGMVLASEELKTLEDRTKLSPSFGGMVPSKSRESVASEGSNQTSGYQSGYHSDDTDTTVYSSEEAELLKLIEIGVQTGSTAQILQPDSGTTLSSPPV

| IC50 (KDR) [nM] | IC50 (Met) [nM] | IC50 (AXL) [nM] | IC50 (Mer) [nM] | SMILES |
| --- | --- | --- | --- | --- |
| ≤ 10 | 10 to 100 | ≤ 10 | 10 to 100 | CNC(=O)c1cc2c(Oc3ccc(NC(=O)C4(C(=O)Nc5ccc(F)cc5)CC4)cc3)ccnc2cc1OCC(C)O (centres unmarked) [Compound 116, 1-N′-(4-Fluorophenyl)-1-N-[4-[7-(2-hydroxypropoxy)-6-(methylcarbamoyl)quinolin-4-yl]oxyphenyl]cyclopropane-1,1-dicarboxamide] |
| 10 to 100 | 10 to 100 | 10 to 100 | 10 to 100 | COc1cc2nccc(Oc3ccc(NC(=O)C4(C(=O)Nc5ccc(F)cc5)CC4)cc3)c2cc1C(=O)NO [Compound 20, 1-N′-(4-fluorophenyl)-1-N-[4-[6-(hydroxycarbamoyl)-7-methoxyquinolin-4-yl]oxyphenyl]cyclopropane-1,1-dicarboxamide] |
| 10 to 100 | 10 to 100 | 10 to 100 | 10 to 100 | Cc1cc2c(Oc3ccc(NC(=O)C4(C(=O)Nc5ccc(F)cc5)CC4)cc3F)ccnc2cc1C(N)=O [Compound 293, 1-N′-[4-(7-Carbamoyl-6-methylquinolin-4-yl)oxy-3-fluorophenyl]-1-N-(4-fluorophenyl)cyclopropane-1,1-dicarboxamide] |
| > 300 | 10 to 100 | 10 to 100 | 10 to 100 | CNC(=O)c1cc2nccc(Oc3c(F)cc(NC(=O)C4(C(=O)Nc5ccc(F)cc5)CC4)c(F)c3F)c2cc1C [Compound 292, 1-N-(4-Fluorophenyl)-1-N′-[2,3,5-trifluoro-4-[6-methyl-7-(methylcarbamoyl)quinolin-4-yl]oxyphenyl]cyclopropane-1,1-dicarboxamide] |
| 10 to 100 | 10 to 100 | 10 to 100 | 10 to 100 | CNS(=O)(=O)c1cc2c(Oc3ccc(NC(=O)C4(C(=O)Nc5ccc(F)cc5)CC4)cc3)ccnc2cc1OC [Compound 207, 1-N′-(4-Fluorophenyl)-1-N-[4-[7-methoxy-6-(methylsulfamoyl)quinolin-4-yl]oxyphenyl]cyclopropane-1,1-dicarboxamide] |
| 100 to 300 | 10 to 100 | 10 to 100 | 10 to 100 | CONC(=O)c1ccc2c(Oc3ccc(NC(=O)C4(C(=O)Nc5ccc(F)cc5)CC4)cc3)ccnc2c1 [Compound 213, 1-N′-(4-Fluorophenyl)-1-N-[4-[7-(methoxycarbamoyl)quinolin-4-yl]oxyphenyl]cyclopropane-1,1-dicarboxamide] |
| 10 to 100 | 10 to 100 | 10 to 100 | 10 to 100 | CNC(=O)c1cc2nccc(Oc3ccc(NC(=O)C4(C(=O)Nc5ccc(F)cc5)CC4)cc3F)c2cc1C [Compound 289, 1-N′-[3-Fluoro-4-[6-methyl-7-(methylcarbamoyl)quinolin-4-yl]oxyphenyl]-1-N-(4-fluorophenyl)cyclopropane-1,1-dicarboxamide] |
| 10 to 100 | 10 to 100 | 10 to 100 | 10 to 100 | CCNS(=O)(=O)c1cc2c(Oc3ccc(NC(=O)C4(C(=O)Nc5ccc(F)cc5)CC4)cc3)ccnc2cc1OC [Compound 208, 1-N-[4-[6-(Ethylsulfamoyl)-7-methoxyquinolin-4-yl]oxyphenyl]-1-N′-(4-fluorophenyl)cyclopropane-1,1-dicarboxamide] |
| 10 to 100 | 10 to 100 | 10 to 100 | 10 to 100 | CCNC(=O)c1ccc2c(Oc3ccc(NC(=O)C4(C(=O)Nc5ccc(F)cc5)CC4)cc3)ccnc2c1 [Compound 214, 1-N-[4-[7-(Ethylcarbamoyl)quinolin-4-yl]oxyphenyl]-1-N′-(4-fluorophenyl)cyclopropane-1,1-dicarboxamide] |
| 10 to 100 | 10 to 100 | 10 to 100 | 10 to 100 | O=C(NOCCO)c1ccc2c(Oc3ccc(NC(=O)C4(C(=O)Nc5ccc(F)cc5)CC4)cc3F)ccnc2c1 [Compound 301, 1-N′-[3-Fluoro-4-[7-(2-hydroxyethoxycarbamoyl)quinolin-4-yl]oxyphenyl]-1-N-(4-fluorophenyl)cyclopropane-1,1-dicarboxamide] |
| 100 to 300 | 100 to 300 | 10 to 100 | 10 to 100 | CCC1NC(=O)c2cc3c(Oc4ccc(NC(=O)C5(C(=O)Nc6ccc(F)cc6)CC5)cc4)ccnc3cc2O1 (centres unmarked) [Compound 96, 1-N-[4-[(2-Ethyl-4-oxo-2,3-dihydropyrido[3,2-g][1,3]benzoxazin-6-yl)oxy]phenyl]-1-N′-(4-fluorophenyl)cyclopropane-1,1-dicarboxamide] |
